{"source": "ChEMBL document CHEMBL1287676", "about": "“Oleanane-type triterpenoids from Panax stipuleanatus and their anticancer activities” (Bioorg Med Chem Lett, 2010)", "key": {"[1]": {"system": "HL-60", "assay": "Cytotoxicity against human HL60 cells by MTT assay", "format": "functional, cell-based"}, "[2]": {"system": "HCT-116", "assay": "Cytotoxicity against human HCT116 cells by MTT assay", "format": "functional, cell-based"}, "[3]": {"system": "HL-60", "assay": "Induction of apoptosis in human HL60 cells assessed as chromatin condensation at IC50 concentration after 24 to 48 hrs using Hoechst 33342 staining by fluorescence microscope", "format": "functional, cell-based"}, "[4]": {"system": "HL-60", "assay": "Induction of apoptosis in human HL60 cells assessed as membrane blebbing at IC50 concentration after 24 to 48 hrs using Hoechst 33342 staining by fluorescence microscope", "format": "functional, cell-based"}, "[5]": {"system": "HL-60", "assay": "Induction of apoptosis in human HL60 cells assessed as cell shrinkage at IC50 concentration after 24 to 48 hrs using Hoechst 33342 staining by fluorescence microscope", "format": "functional, cell-based"}, "[6]": {"system": "HCT-116", "assay": "Induction of apoptosis in human HCT116 cells assessed as chromatin condensation at IC50 concentration after 24 to 48 hrs using Hoechst 33342 staining by fluorescence microscope", "format": "functional, cell-based"}, "[7]": {"system": "HCT-116", "assay": "Induction of apoptosis in human HCT116 cells assessed as membrane blebbing at IC50 concentration after 24 to 48 hrs using Hoechst 33342 staining by fluorescence microscope", "format": "functional, cell-based"}, "[8]": {"system": "HCT-116", "assay": "Induction of apoptosis in human HCT116 cells assessed as cell shrinkage at IC50 concentration after 24 to 48 hrs using Hoechst 33342 staining by fluorescence microscope", "format": "functional, cell-based"}, "[9]": {"system": "HCT-116", "assay": "Induction of apoptosis in human HCT116 cells assessed as increase in induction of PARP cleavage by Western blotting", "format": "functional, cell-based"}, "[10]": {"system": "HCT-116", "assay": "Induction of apoptosis in human HCT116 cells assessed as increase in expression of DR5 by Western blotting", "format": "functional, cell-based"}, "[11]": {"system": "HCT-116", "assay": "Induction of apoptosis in human HCT116 cells assessed as decrease in expression of BCL-2 by Western blotting", "format": "functional, cell-based"}, "[12]": {"system": "HCT-116", "assay": "Induction of apoptosis in human HCT116 cells assessed as increase in expression of Bax by Western blotting", "format": "functional, cell-based"}, "[13]": {"system": "HCT-116", "assay": "Induction of apoptosis in human HCT116 cells assessed as increase in caspase-9 activation by Western blotting", "format": "functional, cell-based"}, "[14]": {"target": "Mitogen-activated protein kinase; ERK1/ERK2 (Homo sapiens) (UniProt P27361+P28482)", "sequence (P27361 whole entry, looked up)": "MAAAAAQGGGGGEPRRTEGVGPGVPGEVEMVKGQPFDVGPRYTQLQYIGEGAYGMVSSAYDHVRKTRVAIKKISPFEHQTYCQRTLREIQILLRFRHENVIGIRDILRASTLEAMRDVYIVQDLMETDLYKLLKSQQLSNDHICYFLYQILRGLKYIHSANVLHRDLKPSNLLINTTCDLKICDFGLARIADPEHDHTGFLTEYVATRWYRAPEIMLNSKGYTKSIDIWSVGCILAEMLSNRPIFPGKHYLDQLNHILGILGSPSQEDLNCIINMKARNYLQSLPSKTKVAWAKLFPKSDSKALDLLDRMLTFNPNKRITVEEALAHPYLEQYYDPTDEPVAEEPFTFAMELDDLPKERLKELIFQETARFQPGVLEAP", "sequence (P28482 whole entry, looked up)": "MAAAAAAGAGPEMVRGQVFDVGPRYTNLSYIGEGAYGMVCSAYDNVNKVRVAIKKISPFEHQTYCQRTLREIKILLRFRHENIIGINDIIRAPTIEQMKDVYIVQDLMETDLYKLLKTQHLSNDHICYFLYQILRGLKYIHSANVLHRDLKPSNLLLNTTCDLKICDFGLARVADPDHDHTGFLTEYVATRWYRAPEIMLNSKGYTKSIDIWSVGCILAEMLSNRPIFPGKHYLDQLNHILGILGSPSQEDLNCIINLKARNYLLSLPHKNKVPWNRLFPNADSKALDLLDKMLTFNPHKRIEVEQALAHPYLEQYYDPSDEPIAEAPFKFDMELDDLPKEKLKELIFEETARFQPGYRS", "assay": "Activation of ERK1/2 in human HCT116 cells assessed as phosphorylated ERK1/2 level by Western blotting", "format": "cell-based", "settings": "HCT-116"}}, "note": "Calls of active or inactive are those of the source. The rule behind the calls is not given here."}
{"compound": "COC(=O)[C@H]1O[C@@H](O[C@H]2CC[C@]3(C)[C@H]4CC=C5[C@@H]6CC(C)(C)CC[C@]6(C(=O)O[C@@H]6O[C@H](CO)[C@@H](O)[C@H](O)[C@H]6O)CC[C@@]5(C)[C@]4(C)CC[C@H]3C2(C)C)[C@H](O)[C@@H](O)[C@@H]1O[C@H]1O[C@@H](CO)[C@H](O)[C@H]1O", "note": "[ARALOSIDE A METHYL ESTER]", "values": [{"measurement": "IC50", "setting": "[1]", "value": 63.4, "unit": "µM"}, {"measurement": "IC50", "setting": "[2]", "value": "> 100", "unit": "µM"}]}
{"compound": "COC(=O)[C@H]1O[C@@H](O[C@H]2CC[C@]3(C)[C@H]4CC=C5[C@@H]6CC(C)(C)CC[C@]6(C(=O)O)CC[C@@]5(C)[C@]4(C)CC[C@H]3C2(C)C)[C@H](O[C@H]2OC[C@@H](O)[C@H](O)[C@H]2O)[C@@H](O)[C@@H]1O", "note": "[PESUDOGINSENOSIDE RP1 METHYL ESTER]", "values": [{"measurement": "IC50", "setting": "[1]", "value": 41.5, "unit": "µM"}, {"measurement": "IC50", "setting": "[2]", "value": 6.5, "unit": "µM"}, {"measurement": "Activity", "setting": "[3]", "value": "Active"}, {"measurement": "Activity", "setting": "[4]", "value": "Active"}, {"measurement": "Activity", "setting": "[5]", "value": "Active"}, {"measurement": "Activity", "setting": "[6]", "value": "Active"}, {"measurement": "Activity", "setting": "[7]", "value": "Active"}, {"measurement": "Activity", "setting": "[8]", "value": "Active"}, {"measurement": "Activity", "setting": "[9]", "value": "Active"}, {"measurement": "Activity", "setting": "[10]", "value": "Active"}, {"measurement": "Activity", "setting": "[11]", "value": "Active"}, {"measurement": "Activity", "setting": "[12]", "value": "Active"}, {"measurement": "Activity", "setting": "[13]", "value": "Active"}, {"measurement": "Activity", "setting": "[14]", "value": "Active"}]}
{"compound": "CC1(C)CC[C@]2(C(=O)O[C@@H]3O[C@H](CO)[C@@H](O)[C@H](O)[C@H]3O)CC[C@]3(C)C(=CC[C@@H]4[C@@]5(C)CC[C@H](O[C@@H]6O[C@H](C(=O)O)[C@@H](O)[C@H](O)[C@H]6O)C(C)(C)[C@@H]5CC[C@]43C)[C@@H]2C1", "note": "[CHIKUSETSUSAPONIN IVA]", "values": [{"measurement": "IC50", "setting": "[1]", "value": 76.2, "unit": "µM"}, {"measurement": "IC50", "setting": "[2]", "value": 78.1, "unit": "µM"}]}
{"compound": "COC(=O)[C@H]1O[C@@H](O[C@H]2CC[C@]3(C)[C@H]4CC=C5[C@@H]6CC(C)(C)CC[C@]6(C(=O)O)CC[C@@]5(C)[C@]4(C)CC[C@H]3C2(C)C)[C@H](O)[C@@H](O[C@@H]2O[C@H](CO)[C@@H](O)[C@H](O)[C@H]2O)[C@@H]1O", "note": "[SPINASAPONIN A METHYL ESTER]", "values": [{"measurement": "IC50", "setting": "[1]", "value": 4.44, "unit": "µM"}, {"measurement": "IC50", "setting": "[2]", "value": 0.63, "unit": "µM"}, {"measurement": "Activity", "setting": "[3]", "value": "Active"}, {"measurement": "Activity", "setting": "[4]", "value": "Active"}, {"measurement": "Activity", "setting": "[5]", "value": "Active"}, {"measurement": "Activity", "setting": "[6]", "value": "Active"}, {"measurement": "Activity", "setting": "[7]", "value": "Active"}, {"measurement": "Activity", "setting": "[8]", "value": "Active"}, {"measurement": "Activity", "setting": "[9]", "value": "Active"}, {"measurement": "Activity", "setting": "[10]", "value": "Active"}, {"measurement": "Activity", "setting": "[11]", "value": "Active"}, {"measurement": "Activity", "setting": "[12]", "value": "Active"}, {"measurement": "Activity", "setting": "[13]", "value": "Active"}, {"measurement": "Activity", "setting": "[14]", "value": "Active"}]}
{"compound": "COC(=O)[C@H]1O[C@@H](O[C@H]2CC[C@]3(C)[C@H]4CC=C5[C@@H]6CC(C)(C)CC[C@]6(C(=O)O[C@@H]6O[C@H](CO)[C@@H](O)[C@H](O)[C@H]6O)CC[C@@]5(C)[C@]4(C)CC[C@H]3C2(C)C)[C@H](O)[C@@H](O[C@@H]2O[C@H](CO)[C@@H](O)[C@H](O)[C@H]2O)[C@@H]1O", "values": [{"measurement": "IC50", "setting": "[1]", "value": 83.9, "unit": "µM"}, {"measurement": "IC50", "setting": "[2]", "value": "> 100", "unit": "µM"}]}
{"compound": "O=C1c2c(O)ccc(O)c2C(=O)c2c(NCCNCCO)ccc(NCCNCCO)c21", "note": "[MITOXANTRONE]", "values": [{"measurement": "IC50", "setting": "[1]", "value": 7.5, "unit": "µM"}, {"measurement": "IC50", "setting": "[2]", "value": 3.96, "unit": "µM"}]}
{"compound": "CC1(C)CC[C@]2(C(=O)O[C@@H]3O[C@H](CO)[C@@H](O)[C@H](O)[C@H]3O)CC[C@]3(C)C(=CC[C@@H]4[C@@]5(C)CC[C@H](O[C@@H]6O[C@H](CO)[C@@H](O)[C@H](O)[C@H]6O[C@H]6OC[C@@H](O)[C@H](O)[C@H]6O)C(C)(C)[C@@H]5CC[C@]43C)[C@@H]2C1", "values": [{"measurement": "IC50", "setting": "[1]", "value": "> 100", "unit": "µM"}, {"measurement": "IC50", "setting": "[2]", "value": 75.9, "unit": "µM"}]}
{"compound": "CC1(C)CC[C@]2(C(=O)O)CC[C@]3(C)C(=CC[C@@H]4[C@@]5(C)CC[C@H](O)C(C)(C)[C@@H]5CC[C@]43C)[C@@H]2C1", "note": "[OLEANOLIC_ACID]", "values": [{"measurement": "IC50", "setting": "[1]", "value": 77.5, "unit": "µM"}, {"measurement": "IC50", "setting": "[2]", "value": 4.8, "unit": "µM"}]}
{"compound": "CC1(C)CC[C@]2(C(=O)O[C@@H]3O[C@H](CO)[C@@H](O)[C@H](O)[C@H]3O)CC[C@]3(C)C(=CC[C@@H]4[C@@]5(C)CC[C@H](O[C@@H]6O[C@H](C(=O)O)[C@@H](O)[C@H](O[C@@H]7O[C@H](CO)[C@@H](O)[C@H](O)[C@H]7O)[C@H]6O)C(C)(C)[C@@H]5CC[C@]43C)[C@@H]2C1", "values": [{"measurement": "IC50", "setting": "[1]", "value": 73, "unit": "µM"}, {"measurement": "IC50", "setting": "[2]", "value": "> 100", "unit": "µM"}]}
{"compound": "CC1(C)CC[C@]2(C(=O)O[C@@H]3O[C@H](CO)[C@@H](O)[C@H](O)[C@H]3O)CC[C@]3(C)C(=CC[C@@H]4[C@@]5(C)CC[C@H](O[C@@H]6O[C@H](C(=O)O)[C@@H](O)[C@H](O)[C@H]6O[C@H]6OC[C@@H](O)[C@H](O)[C@H]6O)C(C)(C)[C@@H]5CC[C@]43C)[C@@H]2C1", "note": "[PSEUDOGINSENOSIDE RT1]", "values": [{"measurement": "IC50", "setting": "[1]", "value": 91.2, "unit": "µM"}, {"measurement": "IC50", "setting": "[2]", "value": "> 100", "unit": "µM"}]}
{"compound": "COC(=O)[C@H]1O[C@@H](O[C@H]2CC[C@]3(C)[C@H]4CC=C5[C@@H]6CC(C)(C)CC[C@]6(C(=O)O[C@@H]6O[C@H](CO)[C@@H](O)[C@H](O)[C@H]6O)CC[C@@]5(C)[C@]4(C)CC[C@H]3C2(C)C)[C@H](O[C@H]2OC[C@@H](O)[C@H](O)[C@H]2O)[C@@H](O)[C@@H]1O", "note": "[PSEUDOGINSENOSIDE RT1 METHYL ESTER]", "values": [{"measurement": "IC50", "setting": "[1]", "value": "> 100", "unit": "µM"}, {"measurement": "IC50", "setting": "[2]", "value": "> 100", "unit": "µM"}]}
{"compound": "COC(=O)[C@H]1O[C@@H](O[C@H]2CC[C@]3(C)[C@H]4CC=C5[C@@H]6CC(C)(C)CC[C@]6(C(=O)O[C@@H]6O[C@H](CO)[C@@H](O)[C@H](O)[C@H]6O)CC[C@@]5(C)[C@]4(C)CC[C@H]3C2(C)C)[C@H](O)[C@@H](O[C@@H]2O[C@H](CO)[C@@H](O)[C@H](O)[C@H]2O)[C@@H]1O[C@H]1O[C@@H](CO)[C@H](O)[C@H]1O", "note": "[STIPULEANOSIDE R2 METHYL ESTER]", "values": [{"measurement": "IC50", "setting": "[1]", "value": 67.1, "unit": "µM"}, {"measurement": "IC50", "setting": "[2]", "value": "> 100", "unit": "µM"}]}
{"compound": "CC1(C)CC[C@]2(C(=O)O[C@@H]3O[C@H](CO)[C@@H](O)[C@H](O)[C@H]3O)CC[C@]3(C)C(=CC[C@@H]4[C@@]5(C)CC[C@H](O[C@@H]6O[C@H](C(=O)O)[C@@H](O[C@H]7O[C@@H](CO)[C@H](O)[C@H]7O)[C@H](O[C@@H]7O[C@H](CO)[C@@H](O)[C@H](O)[C@H]7O)[C@H]6O)C(C)(C)[C@@H]5CC[C@]43C)[C@@H]2C1", "note": "[STIPULEANOSIDE R2]", "values": [{"measurement": "IC50", "setting": "[1]", "value": "> 100", "unit": "µM"}, {"measurement": "IC50", "setting": "[2]", "value": "> 100", "unit": "µM"}]}
